Laboratory results taken from US9920030B2 (priority 2006, dated 2018).
Where two headings read alike, the source gives them in different places.

Legend:
Type in all cases: in vivo
[1] = test system: Plasmopara vilicola (the causal agent of grape downy mildew); assay: Test A: grape downy mildew, test suspension sprayed on grape seedlings after inoculation, visual disease rating
Excerpt: General protocol for preparing test suspensions for Test A-C: The test compounds were first dissolved in acetone in an amount equal to 3% of the final volume and then suspended at the desired concentration (in ppm) in acetone and purified water (50/50 mix by volume) containing 250 ppm of the surfactant Trem® 014 (polyhydric alcohol esters). The resulting test suspensions were then used in Tests A-C. Spraying a 200 ppm test suspension to the point of run-off on the test plants was equivalent to a rate of 500 g/ha.
Grape seedlings were inoculated with a spore suspension of Plasmopara vilicola (the causal agent of grape downy mildew) and incubated in a saturated atmosphere at 20° C. for 24 h. After a short drying period, the test suspension was sprayed to the point of run-off on the grape seedlings, which were then moved to a growth chamber at 20° C. for 5 days, after which time the grape seedling were placed back into a saturated atmosphere at 20° C. for 24 h. Upon removal, visual disease ratings were made.
Results for Tests A-C are given in Table A. In the table, a rating of 100 indicates 100% disease control and a rating of 0 indicates no disease control (relative to the controls). A dash (-) indicates no test results.

[2] = test system: Phytophthora infestans (the causal agent of tomato late blight); assay: whole plant or invertebrate
[3] = test system: Phytophthora infestans (the causal agent of tomato late blight); assay: whole plant or invertebrate; remark: listed apart in the source
[4] = Plasmopara, 144 h, ** tested at l0 ppm, read-out: Percent Disease Control, Test A
[5] = Phytophthora infestans, 144 h, read-out: Percent Disease Control, Test B
[6] = Phytophthora infestans, 96 h, read-out: Percent Disease Control, Test C
[7] = compounds without asterisk (application rate not given), 100 = 100% disease control, 0 = no control relative to the controls

O=C(Cn1nc(C(F)(F)F)cc1Cl)N1CCC(c2nc(C3=NO[C@]4(CCCc5ccccc54)C3)cs2)CC1 (racemic) [Compound 230, 2-[5-chloro-3-(trifluoromethyl)-1H-pyrazol-1-yl]-1-[4-[4-[(1′R)-3′,4′-dihydrospiro[isoxazole-5(4H), 1′(2′H)-naphthalen]-3-yl]-2-thiazolyl]-1-piperidinyl]ethanone]
pest or weed control at 10 µg/mL [1, 4]: 100%
pest or weed control at 10 µg/mL [2, 5]: 100%
pest or weed control at 10 µg/mL [3, 6]: 100%

O=C(Cn1nc(C(F)(F)F)cc1C(F)(F)F)N1CCC(c2nc(C3=NO[C@]4(CCc5ccccc54)C3)cs2)CC1 (racemic) [Compound 231, 2-[3,5-bis(trifluoromethyl)-1H-pyrazol-1-yl]-1-[4-[4-[(1R)-2,3-dihydrospiro[1H-indene-1,5′(4′1H)-isoxazol]-3′-yl]-2-thiazolyl]-1-piperidinyl]ethanone]
Percent Disease Control, Test A ([1]; ** tested at l0 ppm): 100%
Percent Disease Control, Test B ([2]; ** tested at l0 ppm): 100%
Percent Disease Control, Test C ([3]; ** tested at l0 ppm): 100%

C[C@]1(c2ccccc2)CC(c2csc(C3CCN(C(=O)Cn4nc(C(F)(F)F)cc4Cl)CC3)n2)=NO1 (racemic) [Compound 261, 2-[5-chloro-3-(trifluoromethyl)-1H-pyrazol-1-yl]-1-[4-[4-[(5R)-4,5-dihydro-5-methyl-5-phenyl-3-isoxazolyl]-2-thiazolyl]-1-piperidinyl]ethanone]
pest or weed control at 10 µg/mL [1, 4]: 100%
pest or weed control at 10 µg/mL [2, 5]: 100%
pest or weed control at 10 µg/mL [3, 6]: 93%

Cc1cc(C(F)(F)F)nn1CC(=O)N1CCC(c2nc(C3=NO[C@@](C#N)(c4ccccc4)C3)cs2)CC1 (racemic) [Compound 265, (5R)-4,5-dihydro-3-[2-[1-[2-[5-methyl-3-(trifluoromethyl)-1H-pyrazol-1-yl]acetyl]-4-piperidinyl]-4-thiazolyl]-5-phenyl-5-isoxazolecarbonitrile]
pest or weed control at 10 µg/mL [1, 4]: 100%
pest or weed control at 10 µg/mL [2, 5]: 100%
pest or weed control at 10 µg/mL [3, 6]: 98%

Cc1cc(C(F)(F)F)nn1CC(=O)N1CCC(c2nc(C3=NOC(c4ccccc4)C3)cs2)CC1 (single isomer, unassigned) [Compound 4]
Percent Disease Control, Test A ([1]; ** tested at l0 ppm): 100%
Percent Disease Control, Test B ([2]; ** tested at l0 ppm): 100%
Percent Disease Control, Test C ([3]; ** tested at l0 ppm): 99%

Cc1cc(C(F)(F)F)nn1CC(=O)N1CCC(c2nc(C3=NOC4(CCC(c5ccccc5)C4)C3)cs2)CC1 (single isomer, unassigned) [Compound 157]
Percent Disease Control, Test A ([1]; * tested at 40 ppm): 100%
Percent Disease Control, Test B ([2]; * tested at 40 ppm): 100%
Percent Disease Control, Test C ([3]; * tested at 40 ppm): 94%

Cc1cc(C(F)(F)F)nn1CC(=O)N1CCC(c2nc(C3=NOC4(CCC(c5ccccc5)C4)C3)cs2)CC1 (single isomer, unassigned) [Compound 158]
Percent Disease Control, Test A [1, 7]: 96%
Percent Disease Control, Test B [2, 7]: 100%
Percent Disease Control, Test C [3, 7]: 99%

Cc1cc(C(F)(F)F)nn1CC(=O)N1CCC(c2nc(C3=NOC4(COC(c5ccccc5)OC4)C3)cs2)CC1 (single isomer, unassigned) [Compound 175]
Percent Disease Control, Test A [1, 7]: 68%
Percent Disease Control, Test B [2, 7]: 100%
Percent Disease Control, Test C [3, 7]: 33%

Cc1cc(C(F)(F)F)nn1CC(=O)N1CCC(c2nc(C3=NOC4(COC(c5ccccc5)OC4)C3)cs2)CC1 (single isomer, unassigned) [Compound 176]
Percent Disease Control, Test A [1, 7]: 68%
Percent Disease Control, Test B [2, 7]: 100%
Percent Disease Control, Test C [3, 7]: 63%

Cc1cc(C(F)(F)F)nn1CC(=O)N1CCC(c2nc(C3=NOC4(CCC(C)(c5ccccc5)CC4)C3)cs2)CC1 (single isomer, unassigned) [Compound 186]
Percent Disease Control, Test A ([1]; * tested at 40 ppm): 95%
Percent Disease Control, Test B ([2]; * tested at 40 ppm): 100%
Percent Disease Control, Test C ([3]; * tested at 40 ppm): 86%

Cc1cc(C(F)(F)F)nn1CC(=O)N1CCC(c2nc(C3=NOC4(CCC(C)(c5ccccc5)CC4)C3)cs2)CC1 (single isomer, unassigned) [Compound 187]
Percent Disease Control, Test A ([1]; * tested at 40 ppm): 99%
Percent Disease Control, Test B ([2]; * tested at 40 ppm): 100%
Percent Disease Control, Test C ([3]; * tested at 40 ppm): 93%

Cc1cc(C(F)(F)F)nn1CC(=O)N1CCC(c2nc(C3=NOC4(CCCC(C#N)C4)C3)cs2)CC1 (single isomer, unassigned) [Compound 253]
Percent Disease Control, Test A ([1]; * tested at 40 ppm): 100%
Percent Disease Control, Test B ([2]; * tested at 40 ppm): 100%
Percent Disease Control, Test C ([3]; * tested at 40 ppm): 95%

Cc1cc(C(F)(F)F)nn1CC(=O)N1CCC(c2nc(C3=NOC4(CCCC(C#N)C4)C3)cs2)CC1 (single isomer, unassigned) [Compound 254]
Percent Disease Control, Test A ([1]; * tested at 40 ppm): 100%
Percent Disease Control, Test B ([2]; * tested at 40 ppm): 100%
Percent Disease Control, Test C ([3]; * tested at 40 ppm): 93%

Cc1cc(C(F)(F)F)nn1CC(=O)N1CCC(c2nc(C3=NOC4(CCC(C#N)CC4)C3)cs2)CC1 (single isomer, unassigned) [Compound 255]
Percent Disease Control, Test A ([1]; * tested at 40 ppm): 95%
Percent Disease Control, Test B ([2]; * tested at 40 ppm): 100%
Percent Disease Control, Test C ([3]; * tested at 40 ppm): 93%

Cc1cc(C(F)(F)F)nn1CC(=O)N1CCC(c2nc(C3=NOC4(CCC(C#N)CC4)C3)cs2)CC1 (single isomer, unassigned) [Compound 256]
Percent Disease Control, Test A ([1]; * tested at 40 ppm): 100%
Percent Disease Control, Test B ([2]; * tested at 40 ppm): 100%
Percent Disease Control, Test C ([3]; * tested at 40 ppm): 99%

Cc1cc(C(F)(F)F)nn1CC(=O)N1CCC(c2nc(C3=NO[C@@H](c4ccccc4)C3)cs2)CC1 [Compound 3, 1-[4-[4-[(5R)-4,5-dihydro-5-phenyl-3-isoxazolyl]-2-thiazolyl]-1-piperidinyl]-2-[5-methyl-3-(trifluoromethyl)-1H-pyrazol-1-yl]ethanone]
pest or weed control at 10 µg/mL [1, 4]: 100%
pest or weed control at 10 µg/mL [2, 5]: 100%
pest or weed control at 10 µg/mL [3, 6]: 99%

Cc1cc(C(F)(F)F)nn1CC(=O)N1CCC(c2nc(C3CC(c4ccccc4)=NO3)cs2)CC1 (stereo not drawn) [Compound 6, 4-[4-(4,5-dihydro-3-phenyl-5-isoxazolyl)-2-thiazolyl]-1-[(5-methyl-3-(trifluoromethyl)-1H-pyrazol-1-yl)acetyl]piperidine]
pest or weed control at 40 ppm ([1]; Plasmopara, 144 h, * tested at 40 ppm, read-out: Percent Disease Control, Test A): 95%
pest or weed control at 40 ppm [2, 5]: 100%
pest or weed control at 40 ppm [3, 6]: 99%

CC(=O)N1C(c2ccccc2)COC1c1csc(C2CCN(C(=O)Cn3nc(C(F)(F)F)cc3C)CC2)n1 (stereo not drawn) [Compound 14]
Percent Disease Control, Test A [1, 7]: 25%
Percent Disease Control, Test B [2, 7]: 99%
Percent Disease Control, Test C [3, 7]: 99%

Cc1cc(C(F)(F)F)nn1CC(=O)N1CCC(c2nc(C3=NOC(c4ccccc4)C3C)cs2)CC1 (stereo not drawn) [Compound 25]
Percent Disease Control, Test A ([1]; * tested at 40 ppm): 100%
Percent Disease Control, Test B ([2]; * tested at 40 ppm): 100%
Percent Disease Control, Test C ([3]; * tested at 40 ppm): 99%

Cc1cc(C(F)(F)F)nn1CC(=O)N1CCC(c2nc(-c3ccc(-c4ccccc4)cc3)cs2)CC1 [Compound 26]
Percent Disease Control, Test A [1, 7]: 76%
Percent Disease Control, Test B [2, 7]: 83%
Percent Disease Control, Test C [3, 7]: 33%
